{
  "source": "patent US20250367305A1",
  "about": "“ALBUMIN NANOCOMPOSITE COMPRISING PHYTOCHEMICAL AND COMPOSITION FOR IMPROVING MUSCLE DISEASE CONTAINING SAME” (SEOUL NATIONAL UNIVERSITY R&DB FOUNDATION, priority 2023, published 2025)",
  "key": {"[1]": {"tested_on": "RAW cells polarized from M0 to M1", "assay": "M1-type macrophage inhibition: cell morphology and intracellular/extracellular ROS levels", "type": "cell-based"}, "[2]": {"tested_on": "MHC, MyoG (myogenin) in C2C12", "assay": "Western blot of MHC and MyoG in cisplatin-treated cells", "type": "cell-based, mouse", "details": "reduced by cisplatin treatment", "method": "Additionally, proteins were extracted from each experimental cell group, and western blot analysis was conducted to examine the expression level of MyoG (myogenin), which induces muscle generation."}, "[3]": {"tested_on": "Mouse muscle cells (C2C12)", "assay": "Muscle cell atrophy induced by cisplatin: myotube differentiation by immunofluorescence", "type": "cell-based", "details": "40 μM cisplatin, 2.5 and 5 μM, 48 hours"}, "[4]": {"tested_on": "MHC, IGF-IR, p-AKT, p-Foxo3a, MuRF1 in C2C12", "assay": "Western blot of muscle generation and degradation proteins in CCM-treated cells", "type": "cell-based, mouse", "source_text": "Meanwhile, to evaluate the effect of the apigenin-glycated albumin composite on the expression of genes related to muscle generation and degradation, proteins were extracted from the cells of each experimental group and analyzed via western blotting."}, "[5]": {"tested_on": "Mouse muscle cells (C2C12)", "assay": "Cytotoxicity by DAPI nuclei count", "type": "cell-based", "details": "apigenin 2.5 and 5 μM, 96 hours", "method": "After 96 hours of incubation, cell nuclei were stained with DAPI."}, "[6]": {"tested_on": "Mouse muscle cells (C2C12)", "assay": "Muscle atrophy induced by cancer cell-conditioned medium (CCM, CT26): myotube differentiation by immunofluorescence", "type": "cell-based", "details": "CCM-induced atrophied cells, 2.5 μM, 48 hours", "method": "First, mouse muscle cells (C2C12) were cultured, and the culture medium was replaced with cancer cell-conditioned medium (CCM) from cultured CT26 (colon carcinoma) cells to induce muscle atrophy.\n(§1) Mouse muscle cells (C2C12) were first cultured, and then their medium was replaced with cancer cell-conditioned medium (CCM) from cultured mouse colon carcinoma cells (CT26) to induce muscle atrophy. The cells were treated with either 2.5 μM of ursolic acid alone or ursolic acid-glycated albumin and incubated for 48 hours. Thereafter, fluorescence expression was confirmed to evaluate the level of myotube differentiation.\nas §1, with “and” for “and then”, “soyasapogenol B” for “ursolic acid”, “soyasapogenol B-glycated” for “ursolic acid-glycated”\nas §1, with “and” for “and then”, “citrusinol” for “ursolic acid”, “citrusinol-glycated” for “ursolic acid-glycated”"}},
  "data": [
    {"smiles": "O=c1cc(-c2ccc(O)cc2)oc2cc(O)cc(O)c12", "note": "[apigenin]", "values": [
      {"measurement": "RAW cell morphology", "setting": "[1]; RAW cells polarized from M0 to M1, FIG. 7a", "result": "maintained in the M0 type"},
      {"measurement": "ROS levels (intracellular/extracellular)", "setting": "[1]; RAW cells polarized from M0 to M1, FIG. 7b", "result": "ROS reduction was observed"},
      {"measurement": "MHC expression", "setting": "[2]", "result": "increased"},
      {"measurement": "MyoG expression", "setting": "[2]", "result": "increased"},
      {"measurement": "atrophy caused by cisplatin", "setting": "[3]", "result": "inhibited"},
      {"measurement": "expression of IGF-IR", "setting": "[4]; CCM treatment", "result": "increased expression"},
      {"measurement": "expression of MHC", "setting": "[4]; CCM treatment", "result": "increased expression"},
      {"measurement": "expression of p-AKT", "setting": "[4]; CCM treatment", "result": "increased expression"},
      {"measurement": "expression of p-Foxo3a", "setting": "[4]; CCM treatment", "result": "increased expression"},
      {"measurement": "MuRF1 expression", "setting": "[4]; elevated by CCM treatment", "result": "reduced"},
      {"measurement": "cytotoxicity (number of DAPI-stained nuclei)", "setting": "[5]", "result": "neither the apigenin alone nor the apigenin-glycated albumin composite exhibited cytotoxicity"}
    ]},
    {"smiles": "CC1(C)C=Cc2c(cc(O)c3c(=O)c(O)c(-c4ccc(O)cc4)oc23)O1", "note": "[citrusinol]", "values": [
      {"measurement": "MHC expression (immunofluorescence)", "setting": "[6]", "result": "increased"}
    ]},
    {"smiles": "CC1(C)C[C@@H](O)[C@]2(C)CC[C@]3(C)C(=CC[C@@H]4[C@@]5(C)CC[C@H](O)[C@](C)(CO)[C@@H]5CC[C@]43C)[C@@H]2C1", "note": "[soyasapogenol B]", "values": [
      {"measurement": "MHC expression (immunofluorescence)", "setting": "[6]", "result": "increased"}
    ]},
    {"smiles": "C[C@H]1[C@H](C)CC[C@]2(C(=O)O)CC[C@]3(C)C(=CC[C@@H]4[C@@]5(C)CC[C@H](O)C(C)(C)[C@@H]5CC[C@]43C)[C@H]12", "note": "[ursolic acid]", "values": [
      {"measurement": "MHC expression (immunofluorescence)", "setting": "[6]", "result": "increased"}
    ]}
  ]
}
